From patent US11993575B1, “Ethyl [4,4-bis(4-bromophenyl)-2,5-dioxoimidazolidin-1-yl]acetate as an antimicrobial compound” (KING FAISAL UNIVERSITY, priority 2023, dated 2024)

What was measured:
Assay type in all cases: cell-based
Details in all cases: after 10, 20, 40 and 60 minutes at all dilutions 1:100, 1:200, 1:400, 1:800
Staphylococcus aureus = assay: Antimicrobial testing by agar dilution, Staphylococcus aureus
Method: (§1) The antimicrobial properties of the ethyl [4,4-bis(4-bromophenyl)-2,5-dioxoimidazolidin-1-yl]acetate was studied by the method of agar dilution. Test solutions of each compound was prepared in concentration of 1% using dimethylformamide as a solvent then they are diluted in physiological solution to obtain the final experimental dilutions 1:100, 1:200, 1:400, 1:800. The effect of these substances are compared with furacillin in a controllable study. The testing microbes used were gram positive bacteria Staphylococcus aureus, gram negative bacteria Escherichia coli, Pseudomonas aeruginosa and Candida albicans fungi were taken. The experiments used for this survey were meat-pentonlu agar (EPA) for cultivation of bacteria and Saburo environment for fungi. Each experiment used 1 ml of test solution on each plate 500 min. Add 2 drops of emulsified with microbes feel. All experimental samples were taken from the agar after 10, 20, 40, 60 minutes in the environment on the basis of Patrk planted. Bacteria were cultivated at a temperature of 37° C. for 1 day and the mushroom was kept in a thermostat for […] at a temperature of 28° C. Then the results were checked.

Escherichia coli = assay: Antimicrobial testing by agar dilution, Escherichia coli
Method: as §1

Candida albicans = assay: Antimicrobial testing by agar dilution, Candida albicans
Method: as §1

Pseudomonas aeruginosa = assay: Antimicrobial testing by agar dilution, Pseudomonas aeruginosa
Method: as §1

Measured: inhibition activity

CCOC(=O)CN1C(=O)NC(c2ccc(Br)cc2)(c2ccc(Br)cc2)C1=O [ethyl [4,4-bis(4-bromophenyl)-2,5-dioxoimidazolidin-1-yl]acetate]
higher inhibition activity: all assays above
